We go through one molecule from publication PMC5323270 (SLAS discovery, 2016).

In brackets after ≈: the same amount, converted by molar mass. Like-named read-outs stand apart in the source and are kept apart here.

The test system of experiment [1] is M. tuberculosis H37Rv. Put plainly: microbe, parasite or virus in culture. To be noted: Mycobacterium tuberculosis, read-out: MIC90 MABA. It is filed as cell-based.
Experiment [2] has as its system M. tuberculosis H37Rv. Description: microbe, parasite or virus in culture. Format: cell-based. The following applies: Mycobacterium tuberculosis, read-out: MIC90 LORA.

Consider `CO[C@H]1/C=C/O[C@@]2(C)Oc3c(C)c(O)c4c(O)c(c(/C=N/N5CCN(C)CC5)c(O)c4c3C2=O)NC(=O)/C(C)=C\C=C\[C@H](C)[C@H](O)[C@@H](C)[C@@H](O)[C@@H](C)[C@H](OC(C)=O)[C@@H]1C` [Rifampin (RMP), Rifampin], for which the MIC90 turned out to be 0.13 µM (≈ 0.107 µg/mL) with M. tuberculosis H37Rv [1] and 0.46 µM (≈ 0.379 µg/mL) with M. tuberculosis H37Rv [2].
